Test results from US10881656B2, “HIF inhibitors and use thereof” (The General Hospital Corporation, priority 2008, dated 2021).

How the values were obtained:
IRP1 = IRP1 (Homo sapiens, UniProt P21399); assay: HIF-2a activity (EGLN3 qRT-PCR) in IRP knock down lines; conditions: 786-O IRP knock down lines
[1] = tested on: iron (Fe-(EDHB)3 complex); assay: In vitro iron competition assay; conditions: 0-200 micromolars, absorbance at 500 nm
Procedure: This assay was performed similarly to that described previously (Wang et al., 2002). Briefly, displacement of iron from ethyl-3,4-dihydroxybenzoate (EDHB) complex was measured as a decrease in absorbance at 500 nm. Ferric iron, prepared as a 5 mM stock solution of FeC13 in 100 mM sodium citrate, was diluted to 25 μM in the presence of 750 μM EDHB. 1 ml aliquots of this solution were then mixed with 0, 25, 50, 100 or 200 micromolars of compounds 40, 41, 76, and 77 as well as EDTA and DFO for controls. […] The self absorbance of compound 41 in a matched solution lacking Fe-(EDHB)3 was subtracted from the A500 value obtained in the presence of the Fe-(EDHB)3 complex.
The inventors next directly tested whether the compounds bind iron by performing a competition assay in which the displacement of iron from ethyl-3,4-dihydroxybenzoate (EDHB), a weakly chelating ester, was measured as a decrease in absorbance at 500 nm. […] In addition, the inventors utilized the Connectivity Map to look for similarities between the induced gene expression signatures of low and high dose DFO and compound treated cells (Lamb et al., 2006). Using this bioinformatic approach, the inventors discovered no significant similarity between the gene expression profile of the compounds and low (chelating) DFO dose, while there was a negative correlation between compound effect and high (HIF stabilizing) DFO dose (see FIG. 13).

786-O cells = assay: Global translation (35S loading control, polysome analysis); format: cell-based, human
Procedure: DMSO-, rapamycin- or PGJ2-treated 786-O cells were harvested from 10 cm plates for each polysomal analysis. Confluent cells were harvested and lysed in 300 μL ofRSB [10 mmol/L NaCl, 10 mmol/L Tris-HCl (pH 7.4), 15 mmol/L MgCl2] containing 100 μg/mL heparin, 1.2% Triton X-100, and 0.12% deoxycholate. Nuclei were pelleted for 3 min in a microcentrifuge at 4° C. The 300-μL extract was layered over 11.5 mL of a 15% to 45% (wt/wt) sucrose gradient with a 0.5-mL cushion of 45% sucrose. The gradients were centrifuged at 37,000 rpm for 2.5 h in an SW 41 (Beckman) rotor at 4° C. After centrifugation, the A260 was continuously monitored and recorded across the gradient using a Foxy Jr. Density Gradient fractionation system and UA-6 UV/VIS Detector (ISCO, Inc.).
To determine if PGJ2 decreases translation of the HIF2a message, the inventors evaluated the synthesis rate and stability of the newly synthesized HIF2a by an ^35S-methionine pulse chase experiment on PGJ2 or vehicle only DMSO treated 786-O cells. […] Loading control is 1/1000th of the cell lysate used in the respective immunoprecipitation directly loaded into an SDS-PAGE gel.

IRP2 = IRP2 expression in treated cells; format: cell-based, human
Description: However, IRP2 contributes very little—if at all—to the total IRP bound to the HIF2a IRE (Zimmer et al., 2008).

HIF-2a = assay: Western blot for HIF-2a protein expression; format: cell-based, human; conditions: A498 and UMRC2 cells
[2] = tested on: 7SV (SV40-luciferase) cells; assay: SV40-luciferase control reporter assay in 786-O derived 7SV cells; format: cell-based, human; conditions: 48 hours
Procedure: (§1) The screen for small molecule inhibitors was performed in the Institute for Chemical and Cellular biology, Harvard Medical School. 7SV or 7H4 cells were plated onto 384-well plates. The next day compounds were added robotically to the medium, to a final concentration of approximately 10 μM. 24 hours later, media was aspirated and Passive Lysis Buffer (Promega) and Luciferase Assay Reagent II (Promega) were added. Luciferase activity was measured with an Analyst plate reader (LJL Biosystems). All experiments were performed in duplicate and the identity of lead compounds was confirmed by mass spectroscopy
(§2) Luciferase assays were performed using the Promega's Dual-luciferase Assay Reporter System (Promega, E1910) according to the manufacturer's instructions. Counts obtained from transient transfections were normalized for co-transfected Renilla luciferase. Stable clones were normalized to medium only treated wells.
Functionally validated HRE and control SV40 luciferase reporter constructs were stably introduced into VHL-deficient 786-O cells to generate 7H4 and 7SV lines, respectively (see FIG. 8A). […]
To validate the connectivity map-derived prediction that PGJ2 is involved in HIF signaling, the inventors treated HRE-luciferase expressing 786-O cells (7H4) and SV40-luciferase expressing control cells (7SV) with increasing doses of PGJ2. […] Luciferase activity was measured at 48 hours.

[3] = tested on: HIF-2a (HRE-luciferase, 7H4 cells); assay: HRE-luciferase reporter assay in 786-O derived 7H4 cells; format: cell-based, human
Procedure: as §1, §2
Functionally validated HRE and control SV40 luciferase reporter constructs were stably introduced into VHL-deficient 786-O cells to generate 7H4 and 7SV lines, respectively (see FIG. 8A). These lines were used to screen five commercial small molecule libraries (NCI Diversity Set, Chembridge, Maybridge, CEREP and Peakdale) and the ICCB Diversity-Oriented Synthesis (DOS) Diversity Set 2 (DDS2) and serine-derived peptidomimetic (SDP1) collections, totaling 58,000 compounds.
786-O cells were untreated (M, for medium only), mock-treated (D, for DMSO) or treated with compounds for two days before assaying for normalized luciferase activity. The resulting dose response curves are shown along with the compound structures in FIGS. 1A-1H).
To validate the connectivity map-derived prediction that PGJ2 is involved in HIF signaling, the inventors treated HRE-luciferase expressing 786-O cells (7H4) and SV40-luciferase expressing control cells (7SV) with increasing doses of PGJ2.

HIF-2a target genes = assay: HIF-2a target gene expression (Glut-1 Western blot, VEGF and IGFBP3 ELISA, EGLN3 qRT-PCR); format: cell-based, human; conditions: treated 786-O cells
Procedure: ID NO: 1) and [NT] […] ID NO: 3) and [NT] ID NO: 4) for […] ID NO: 5) and [NT] ID NO: 6) for Transferrin Receptor 1 ([…] ID NO: 7) and [NT] ID NO: 8) for […] ID NO: 9) and [NT] ID NO: 10) for […] ID NO. 11) and [NT] ID NO: 12) for EGLN3. […] ID NO: 13) and [NT] ID NO: 14). […] VEGF or IGFBP3 ELISA was performed on the conditioned supernatant using Quantikine immunoassay kits (R&D Systems, DVE00 for VEGF, DGB300 for IGFBP3). […] Hypoxia stabilized HIF-2a in VHL-reconstituted WT8 cells, but treatment with compounds diminished hypoxia-induced HIF-2a expression (FIG. 3C).

IRP1, sequence (P21399 whole entry): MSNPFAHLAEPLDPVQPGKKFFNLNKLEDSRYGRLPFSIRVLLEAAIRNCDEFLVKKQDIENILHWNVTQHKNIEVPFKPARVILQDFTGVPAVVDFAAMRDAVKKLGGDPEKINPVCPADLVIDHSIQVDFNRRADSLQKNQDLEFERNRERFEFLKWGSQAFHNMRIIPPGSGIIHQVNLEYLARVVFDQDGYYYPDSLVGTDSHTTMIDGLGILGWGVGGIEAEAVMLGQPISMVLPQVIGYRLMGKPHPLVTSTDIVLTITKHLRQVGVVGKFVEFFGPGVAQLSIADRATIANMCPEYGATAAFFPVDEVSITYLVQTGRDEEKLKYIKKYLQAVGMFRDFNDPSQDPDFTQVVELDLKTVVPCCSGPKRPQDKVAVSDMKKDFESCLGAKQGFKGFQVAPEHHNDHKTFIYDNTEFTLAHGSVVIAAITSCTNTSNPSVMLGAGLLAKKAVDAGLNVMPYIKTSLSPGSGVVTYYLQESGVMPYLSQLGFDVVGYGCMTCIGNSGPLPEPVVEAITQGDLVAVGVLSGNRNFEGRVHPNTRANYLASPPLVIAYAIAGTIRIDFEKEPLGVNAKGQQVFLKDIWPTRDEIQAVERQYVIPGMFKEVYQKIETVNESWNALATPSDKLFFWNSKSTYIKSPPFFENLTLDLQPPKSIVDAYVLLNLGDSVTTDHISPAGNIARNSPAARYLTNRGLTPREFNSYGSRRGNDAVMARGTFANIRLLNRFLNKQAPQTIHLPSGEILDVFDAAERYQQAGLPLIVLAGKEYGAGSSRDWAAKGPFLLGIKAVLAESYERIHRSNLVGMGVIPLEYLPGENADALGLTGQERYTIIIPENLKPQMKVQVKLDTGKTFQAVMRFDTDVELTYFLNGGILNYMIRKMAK

CC1(C)CC(=O)C=C(Sc2ccc(C#N)cc2[N+](=O)[O-])S1 [Compound 77, 4-[(2,2-dimethyl-4-oxo-3,4-dihydro-2H-thiin-6-yl)thio]-3-nitrobenzonitrile]
effect on HIF-2a activity when IRP1 is knocked down (IRP1): inhibition of IRP1 is sufficient to block effect of compounds on HIF-2a activity | displacement of iron from EDHB complex (iron chelation) [1]: are not iron chelators

COC(=O)c1sccc1N/N=C(/C#N)S(C)(=O)=O [Compound 76, methyl 3-{2-[cyano(methylsulfonyl)methylene] hydrazino}thiophene-2-carboxylate]
effect on HIF-2a activity when IRP1 is knocked down (IRP1): inhibition of IRP1 is sufficient to block effect of compounds on HIF-2a activity | displacement of iron from EDHB complex (iron chelation) [1]: are not iron chelators

CCCCC/C=C/C=C1/C(=O)C=C[C@@H]1C/C=C\CCCC(=O)O [PGJ2, 15-deoxy-Δ^12,14-prostaglandin J2]
global cellular translation (35S-methionine loading control) (786-O cells; 10 μM): does not globally decrease cellular translation | ribosomes actively engaged in translation (polysome analysis) (786-O cells; 24 hours): little effect on the number of ribosomes actively engaged in translation | IRP2 expression (IRP2): minimally increased | HIF2a protein expression in other VHL-deficient renal cell carcinoma lines (HIF-2a): decreased HIF2a protein expression | SV40-driven luciferase activity [2]: not affected | displacement of iron from EDHB complex (iron chelation) [1]: not an iron chelator | IC50 ([3]; 7H4 cells, luciferase measured at 48 hours, read-out: IC50app, HRE-driven luciferase activity): 5 µM | HIF2a activity at various ambient oxygen concentrations ([3]; HRE-luciferase 786-O cells, 48 hours): has the ability to repress HIF2a activity at a wide range of oxygen concentrations | expression of HIF-2a target genes (Glut-1, VEGF, IGFBP3, EGLN3) (HIF-2a target genes): decrease

C/C(=C\c1ccccc1)C(=O)CCN(C)C.Cl [Compound 40, 5-(dimethylamino)-2-methyl-1-phenyl-1-penten-3-one hydrochloride]
displacement of iron from EDHB complex (iron chelation) [1]: are not iron chelators

COc1ccc(O)c(/C=C/C(=O)c2c(O)cc(C)oc2=O)c1 [Compound 41, 4-hydroxy-3-[3-(2-hydroxy-5-meoxyphenyl)acryloyl]-6-methyl-2H-pyran-2-one]
displacement of iron from EDHB complex (iron chelation) [1]: are not iron chelators
